Experimental data as given in publication PMC5988308, “Rhodanine derivatives as potent anti-HIV and anti-HSV microbicides” (PLoS ONE, 2018).
≈ marks a conversion by molar mass, not a printed value.

Legend:
[1] = Parallel Artificial Membrane Permeability Assay (PAMPA); format: in vitro ADME; details: pH 7.4, 5 h
Experimental: Donor solution (0.5 mM) was prepared by diluting 1 mM dimethylsulfoxide (DMSO) compound stock solution using phosphate buffer (pH 7.4, 0.025 M). Filters were coated with 5 μL of a 1% (w/v) dodecane solution of L-α-phosphatidylcholine. Donor solution (150 μL) was added to each well of the filter plate. To each well of the acceptor plate were added 300 μL of solution (50% DMSO in phosphate buffer). All compounds were tested in three different plates on different days. The sandwich was incubated for 5 h at room temperature under gentle shaking. After the incubation time, the plates were separated, and samples were taken from both receiver and donor sides and analyzed using UV/HPLC-MS gradient method above reported. Permeability (Papp) for PAMPA, were calculated according to the following equation, obtained from Wohnsland and Faller and Sugano [37] equation with some modification in order to obtain permeability values in cm s-1, Papp=VDVA/(VD+VA)At−ln(1−r) where VA is the volume in the acceptor well, VD is the volume in the donor well (cm^3), A is the “effective area” of the membrane (cm^2), t is the incubation time (s) and r the ratio between drug concentration in the acceptor and equilibrium concentration of the drug in the total volume (VD+VA). Drug concentration is estimated by using the peak area integration.

[2] = Cytotoxicity on TZM-bl cells (XTT test); format: cell-based; details: human, read-out: Citotoxicity (TZM-bl cells) CC50
Experimental: The human TZM-bl indicator cell line (obtained from the NIH AIDS reagents program, cat. Nr 8129 (www.aidsreagent.org) and maintained at 37°C and 5% CO2 in Dulbecco’s modified Eagle’s medium (DMEM) medium containing 10% fetal bovine serum, 50 μg/mL penicillin, and 50 μg/mL streptomycin. The HIV-1 laboratory strains NL(AD8) (NIH AIDS reagents program, cat.nr 11346), NL4.3 (NIH AIDS reagents program, cat. Nr. 114) were titrated as previously reported. Briefly, serial 5-fold dilutions of each virus were made in quadruplicate wells in 96-well culture plates, in a total volume of 100 μL of growth medium (DMEM), for a total of 8 dilution steps. Freshly trypsinized cells (20,000 cells in 100 μL of growth medium containing 75 μg/mL DEAE-dextran) were added to each well, and the plates were incubated at 37°C in a humidified 5% CO2-95% air environment. After 48 h of incubation, the medium was removed and viral infection was quantified using a β-galactosidase (CPRG) assay (Roche). Twenty thousand TZM-bl cells/well were seeded in 96-well plates in complete DMEM supplemented with 30 μg/mL DEAE-dextran (Sigma-Aldrich). Three hundred times the 50% tissue culture infective dose (TCID50)/mL of each strain was pretreated for 1 h at 37°C with six serial dilutions ([…] to 3.2 nM) of each compound and then added to the cells, as previously described. Vehicle (0.1% dimethyl sulfoxide [DMSO])-treated cells served as a negative control. […] After 2 days, viral infection was quantified using a CPRG assay (Roche). The inhibitory curves were fitted by nonlinear regression, allowing for the calculation of the 50% inhibitory concentration (IC50) using the Prism software. To evaluate the cell toxicity of the compounds, the metabolic XTT [2,3-bis-(2-methoxy-4-nitro-5-sulfophenyl)-2H-tetrazolium-5-carboxanilide] test (Sigma-Aldrich) was performed according to the manufacturer’s instructions.

[3] = Metabolic stability in human liver microsomes; format: in vitro ADME; details: HLM, 37°C, 1 h; percentage of compound not metabolized
Experimental: The incubation mixture (total volume of 500 μL) was constituted by the following components: HLM (0.2 mg/mL), a NADPH regenerating system (NADPH 0.2 mM, […] 1 mM, D-glucose-6-phosphate 4 mM, 4 unit/mL glucose-6-phosphate dehydrogenase and MgCl2 48 mM), 50 μM of each compound in DMSO and phosphate buffer (pH 7.4, 25 mM, up to a final volume of 500 μL). The mixture was incubated at 37°C for 1 h. The reaction was cooled down and quenched with acetonitrile (1.0 mL). After centrifugation (4000 rpm, 10 min), the supernatant was taken, dried under nitrogen flow, suspended in 100 μL of methanol and analyzed by UV/LC-MS to determine the percentage of compound that was not metabolized.

[4] = Aqueous (thermodynamic) solubility; format: physicochemical; details: thermodynamic from solid, water, 20°C, read-out: Water Solub.
Experimental: Each solid compound (1 mg) was added to 1 mL of water. Each sample was mixed at 20°C, in a shaker water bath for 24 h. The resulting suspension was filtered through a 0.45 μm nylon filter (Acrodisc). The concentration of solubilized compounds weres determined by UV/LC-MS (performed in triplicate) by comparison with the appropriate calibration curve that was obtained from samples of the compound dissolved in methanol at different concentrations.

[5] = Vero cell viability (MTS assay); format: cell-based; details: African green monkey
Experimental: African green monkey fibroblastoid kidney cells (Vero, ATCC CCL-81) were grown as monolayers in Eagle's minimal essential medium (MEM) (Gibco/BRL, Gaithersburg, MD) supplemented with 10% heat inactivated fetal calf serum (FCS) and 1% antibiotic-antimycotic solution (Zell Shield, Minerva Biolabs GmbH, Berlin, Germany).
Cell viability was measured using the MTS [3-(4,5-dimethylthiazol-2-yl)-5-(3-carboxymethoxyphenyl)-2-(4-sulfophenyl)-2H-tetrazolium] assay. Cell cultures were seeded in 96-well plates were incubated with different concentrations of compounds in triplicate under the same experimental conditions described for the antiviral assays. Cell viability was determined using the CellTiter 96 Proliferation Assay Kit (Promega, Madison, WI, USA) according to the manufacturer's instructions. Absorbances were measured using a Microplate Reader (Model 680, BIORAD) at 490 nm. The effect on cell viability at different concentrations of the compound was expressed as a percentage, by comparing absorbances of treated cells with those of cells incubated with culture medium and equal volumes of vehicle.

[6] = biological target: bovine serum albumin (BSA) (Bos taurus, UniProt P02769); assay: Albumin binding fluorimetric assay, BSA; details: fluorescence quenching, 10 μM BSA
Chain of bovine serum albumin (BSA) (P02769 25-607): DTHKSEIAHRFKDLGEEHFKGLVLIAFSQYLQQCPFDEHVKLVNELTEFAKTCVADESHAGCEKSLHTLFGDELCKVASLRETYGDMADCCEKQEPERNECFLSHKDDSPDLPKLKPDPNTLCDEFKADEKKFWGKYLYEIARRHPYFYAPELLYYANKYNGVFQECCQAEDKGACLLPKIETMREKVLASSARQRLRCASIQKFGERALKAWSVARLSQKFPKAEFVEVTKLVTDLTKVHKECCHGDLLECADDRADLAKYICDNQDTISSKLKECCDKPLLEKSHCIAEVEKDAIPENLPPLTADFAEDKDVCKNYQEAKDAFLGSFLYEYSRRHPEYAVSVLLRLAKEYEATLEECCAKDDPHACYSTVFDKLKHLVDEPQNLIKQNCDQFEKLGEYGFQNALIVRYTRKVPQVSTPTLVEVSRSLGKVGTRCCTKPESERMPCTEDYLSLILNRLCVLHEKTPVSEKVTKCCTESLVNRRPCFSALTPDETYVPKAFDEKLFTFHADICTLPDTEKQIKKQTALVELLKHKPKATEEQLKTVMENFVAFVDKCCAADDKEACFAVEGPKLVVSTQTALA
Experimental: The binding of each compounds to HSA (human serum albumin) and BSA (bovine serum albumin) were monitored by fluorescence spectroscopy in order to determine the dissociation constant (Kd). A quantitative analysis of the potential interaction was performed by fluorimetric analysis using 96 multiwell plates: in each well a fixed concentration of HSA or BSA (10μM in phosphate buffer 1 mM), was added with different amounts of tested compound (0.1μM to 500μM by stock solutions in DMSO). Plates were gently shacked and after allowing 30 minutes at room temperature for equilibration, after excitation at 295nm, spectra were recorded from 300 to 400 nm with a Perkin Elmer EnVision Multilabel Reader 2014 spectrofluorimeter, spectra were acquired with EnVision Manager ver.1.13 software. The obtained fluorescence quenching percentages were plotted against drug concentrations and the relative Kd values were obtained using GraphPad software (version 6.0).

[7] = Vero cells, HSV-2 assay conditions, read-out: Citotoxicity (Vero cells) CC50

| Compound | Papp [1] | CC50 [2] [µM] | Metabolic Stability [3] [%] | solubility at 24 h [4] [µg/mL] | CC50 [5, 7] [µM] | Kd [6] [µM] | CC50 ([5]; Vero cell CC50 (HSV-2 acyclovir resistant rows)) [µM] | CC50 ([5]; Vero cells, HSV-1 assay conditions, read-out: Vero cell CC50 (HSV-1)) [µM] |
| --- | --- | --- | --- | --- | --- | --- | --- | --- |
| O=C(O)c1ccc(-c2ccc(/C=C3\SC(=S)N(Cc4ccc(F)cc4)C3=O)o2)cc1O [Compound 1] | 1.28 1·10^-6cm/sec | > 20 | >90 | 0.88 ± 0.1 (≈ 1.93 µM) | 224 ± 78.5 | 0.68 ± 0.1 |  |  |
| O=C(O)c1ccc(-c2ccc(/C=C3\SC(=S)N(Cc4ccc(Cl)cc4)C3=O)o2)cc1O [Compound 2] | 1.26 1·10^-6cm/sec | > 20 | >90 | 0.52 ± 0.13 (≈ 1.1 µM) | 112 ± 11.6 | 0.63 ± 0.1 | 112 ± 11.6 | 98 ± 23.1 |
| O=C(O)c1ccc(-c2ccc(/C=C3\SC(=S)N(CCc4ccc(F)cc4)C3=O)o2)cc1O [Compound 9a, (Z)-4-(5-((3-(4-fluorophenethyl)-4-oxo-2-thioxothiazolidin-5-ylidene)methyl)furan-2-yl)-2-hydroxybenzoic acid] | 0.4 1·10^-6cm/sec | 2.2 | >90 | 0.54 ± 0.08 (≈ 1.15 µM) | > 300 | 1.08 ± 0.2 |  |  |
| Cc1ccc(CCN2C(=O)/C(=C/c3ccc(-c4ccc(C(=O)O)c(O)c4)o3)SC2=S)cc1 [Compound 9b, (Z)-2-hydroxy-4-(5-((3-(4-methylphenethyl)-4-oxo-2-thioxothiazolidin-5-ylidene)methyl)furan-2-yl)benzoic acid] | 2.32 1·10^-6cm/sec | > 20 | >90 | 0.1 ± 0.08 (≈ 0.215 µM) |  | 1.55 ± 0.3 |  |  |
| O=C(O)c1ccc(-c2ccc(/C=C3\SC(=S)N(CCCc4ccccc4)C3=O)o2)cc1O [Compound 9c, (Z)-2-hydroxy-4-(5-((4-oxo-3-(3-phenylpropyl)-2-thioxothiazolidin-5-ylidene)methyl)furan-2-yl)benzoic acid] | 1.23 1·10^-6cm/sec | > 20 | >90 | 0.3 ± 0.07 (≈ 0.644 µM) | 205 ± 30.1 | 1.05 ± 0.1 |  |  |
| CCc1ccc(CCN2C(=O)/C(=C/c3ccc(-c4ccc(C(=O)O)c(O)c4)o3)SC2=S)cc1 [Compound 9d, (Z)-4-(5-((3-(4-ethylphenethyl)-4-oxo-2-thioxothiazolidin-5-ylidene)methyl)furan-2-yl)-2-hydroxybenzoic acid] | 1.50 1·10^-6cm/sec | 12.3 | >90 | 0.25 ± 0.09 (≈ 0.521 µM) | 16.9 ± 4.31 | 0.99 ± 0.9 |  |  |
| O=C(O)c1ccc(-c2ccc(/C=C3\SC(=S)N(c4ccc(F)c(Cl)c4)C3=O)o2)cc1O [Compound 9e, (Z)-4-(5-((3-(3-chloro-4-fluorophenyl)-4-oxo-2-thioxothiazolidin-5-ylidene)methyl)furan-2-yl)-2-hydroxybenzoic acid] | 0.92 1·10^-6cm/sec | > 20 | >90 | 0.72 ± 0.12 (≈ 1.51 µM) | > 100 | 1.07 ± 0.9 |  |  |
| O=C(O)c1ccc(-c2ccc(/C=C3\SC(=S)N(Cc4ccc(Cl)c(F)c4)C3=O)o2)cc1O [Compound 9f, (Z)-4-(5-((3-(4-chloro-3-fluorobenzyl)-4-oxo-2-thioxothiazolidin-5-ylidene)methyl)furan-2-yl)-2-hydroxybenzoic acid] | 0.87 1·10^-6cm/sec | > 20 | >90 | 0.73 ± 0.14 (≈ 1.49 µM) | 7.87 ± 2.98 | 1.09 ± 0.9 |  |  |
